The results in this text go back to patent publication US10316035B2, “Triazolopyridine inhibitors of myeloperoxidase” (BRISTOL-MYERS SQUIBB COMPANY, priority 2015, dated 2019).

The first test has as its target T1, myeloperoxidase (MPO) (Homo sapiens, UniProt P05164).
T1 sequence (P05164 49-745): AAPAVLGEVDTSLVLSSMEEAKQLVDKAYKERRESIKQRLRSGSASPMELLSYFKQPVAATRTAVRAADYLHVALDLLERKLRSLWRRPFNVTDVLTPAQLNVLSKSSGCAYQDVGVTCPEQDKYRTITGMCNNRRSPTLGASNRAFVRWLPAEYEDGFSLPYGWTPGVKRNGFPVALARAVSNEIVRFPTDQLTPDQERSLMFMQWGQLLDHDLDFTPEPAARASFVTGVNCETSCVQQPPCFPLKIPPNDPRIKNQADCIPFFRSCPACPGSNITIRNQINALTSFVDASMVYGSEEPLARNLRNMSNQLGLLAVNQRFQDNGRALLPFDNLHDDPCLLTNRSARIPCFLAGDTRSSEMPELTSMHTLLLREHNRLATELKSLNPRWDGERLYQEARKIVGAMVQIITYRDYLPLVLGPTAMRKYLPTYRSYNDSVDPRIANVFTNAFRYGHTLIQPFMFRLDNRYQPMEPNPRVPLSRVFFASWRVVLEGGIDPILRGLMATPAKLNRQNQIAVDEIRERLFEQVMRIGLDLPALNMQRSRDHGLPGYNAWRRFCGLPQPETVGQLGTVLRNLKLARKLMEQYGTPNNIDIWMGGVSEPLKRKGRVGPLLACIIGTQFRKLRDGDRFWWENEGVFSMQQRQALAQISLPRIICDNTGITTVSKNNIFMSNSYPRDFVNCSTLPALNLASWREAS
Kind of test: MPO peroxidation assay (Amplex Red assay). Type of test: biochemical.
Conditions: not given
The method, then: MPO Peroxidation Assay (Amplex Red Assay)
MPO peroxidation activity was measured in 100 mM KPi (pH 7.4) by utilizing the non-fluorescent reagent Amplex Red (Invitrogen catalog # A12222) which can be oxidized to the highly fluorescent resorufin. Amplex Red is oxidized by the peroxidase action of MPO to resorufin. Reactions were carried out in 50 μL total volume by adding a 25 μL mixture of 200 pM myeloperoxidase and 40 nM H2O2(Sigma #349887) to 100 nL inhibitor in 100% DMSO in a 384 well Perkin Elmer Optiplate. Enzyme and compound were preincubated for ten minutes at room temperature.
After the ten minute preincubation, 25 μL of an Amplex Red mixture containing 200 μM Amplex Red and 10 mM H2O2 was added to the plate. Kinetic determinations were carried out immediately on a Perkin Elmer Envision (15 minute kinetic read, Ex: 535 nm, Em: 590 nm).
IC50 values were calculated by determining the slope of the linear portion of the kinetic trace ([…]), and using that calculated slope to determine % inhibition occurring at each concentration of inhibitor using the following equation:
[formula] where A=minimal Y value (activity level of inhibited sample), B=maximal Y value (activity level of uninhibited sample), C=Log IC50, D=Hill Slope, x=concentration of inhibitor. MPO Chlorination Assay (APF Assay)
`Cn1ccc(-c2cccc(COc3cc(N)nc4[nH]nnc34)c2)n1` [Example 5, 7-(3-(1-Methyl-1H-pyrazol-3-yl)benzyloxy)-3H-[1,2,3]triazolo[4,5-b]pyridin-5-amine]: the half-maximal inhibitory concentration (IC50) (in general, the concentration needed to halve the response being measured) lay in the range of 1 to 100 nM.

With `Nc1cc(OCc2cccc(Cl)c2)c2nn[nH]c2n1` [Example 10, 7-(3-Chlorobenzyloxy)-3H-[1,2,3]triazolo[4,5-b]pyridin-5-amine], the IC50 lay within 1 to 100 nM.

`Nc1cc(OCc2ccc(Cl)cc2)c2nn[nH]c2n1` [Example 11, 7-(4-Chlorobenzyloxy)-3H-[1,2,3]triazolo[4,5-b]pyridin-5-amine]: the half-maximal inhibitory concentration (IC50) fell in the range of 1 to 100 nM. In the case of `Nc1cc(OCc2ccccc2Cl)c2nn[nH]c2n1` [Example 12, 7-(2-Chlorobenzyloxy)-3H-[1,2,3]triazolo[4,5-b]pyridin-5-amine], the half-maximal inhibitory concentration (IC50) was in the range of 1 to 100 nM.

The same test, now with this note: MPO peroxidation, potency range class; read-out: Amplex Red IC50.
Regarding `CCC(F)(F)C(Oc1cc(N)nc2[nH]nnc12)c1ccccc1` (racemic) [Example 135, 7-(2,2-Difluoro-1-phenylbutoxy)-3H-[1,2,3]triazolo[4,5-b]pyridin-5-amine], the IC50 was 101 to 999 nM. Turning to `CCC(F)(F)C(Oc1cc(N)nc2[nH]nnc12)c1ccccc1OC` (racemic) [Example 136, 7-(2,2-Difluoro-1-(2-methoxyphenyl)butoxy)-3H-[1,2,3]triazolo[4,5-b]pyridin-5-amine], the IC50 fell in the range of 101 to 999 nM. `Nc1cc(OC(c2ccccc2)C(F)F)c2nn[nH]c2n1` (racemic) [Example 138, 7-(2,2-Difluoro-1-phenylethoxy)-3H-[1,2,3]triazolo[4,5-b]pyridin-5-amine]: the 50% inhibitory concentration (IC50) is 101 to 999 nM. Consider `CCC(F)(F)C(Oc1cc(N)nc2[nH]nnc12)c1ccccc1` (single isomer, unassigned) [Example 137, 7-(2,2-Difluoro-1-phenylbutoxy)-3H-[1,2,3]triazolo[4,5-b]pyridin-5-amine], for which the IC50 was in the range of 1 to 100 nM. In the case of `Nc1cc(OCc2ccc(OC(F)(F)F)cc2)c2nn[nH]c2n1` [Example 1, 7-(4-(Trifluoromethoxy)benzyloxy)-3H-[1,2,3]triazolo[4,5-b]pyridin-5-amine], the IC50 was 1 to 100 nM. For the compound `Nc1cc(OCc2cccc(-n3cncn3)c2)c2nn[nH]c2n1` [Example 3, 7-(3-(1H-1,2,4-Triazol-1-yl)benzyloxy)-3H-[1,2,3]triazolo[4,5-b]pyridin-5-amine], the half-inhibitory concentration (IC50) was in the range of 1 to 100 nM. As for `Nc1cc(OCc2cccc(S(=O)(=O)N3CCOCC3)c2)c2nn[nH]c2n1` [Example 4, 7-(3-(Morpholinosulfonyl)benzyloxy)-3H-[1,2,3]triazolo[4,5-b]pyridin-5-amine], the IC50 was 101 to 999 nM.

On to `Cc1nccn1-c1cccc(COc2cc(N)nc3[nH]nnc23)c1` [Example 7, 7-(3-(2-Methyl-1H-imidazol-1-yl)benzyloxy)-3H-[1,2,3]triazolo[4,5-b]pyridin-5-amine], for which the IC50 lay within 101 to 999 nM. With `Nc1cc(OCc2cccc(OC(F)(F)F)c2)c2nn[nH]c2n1` [Example 13, 7-(3-(Trifluoromethoxy)benzyloxy)-3H-[1,2,3]triazolo[4,5-b]pyridin-5-amine], the concentration for half-maximal inhibition (IC50) was in the range of 1 to 100 nM. Take `Nc1cc(OCc2cccc(Oc3ccccc3)c2)c2nn[nH]c2n1` [Example 16, 7-(3-Phenoxybenzyloxy)-3H-[1,2,3]triazolo[4,5-b]pyridin-5-amine]: the half-maximal inhibitory concentration (IC50) was 101 to 999 nM.

Take `Nc1cc(OCc2ccc(OC(F)F)cc2)c2nn[nH]c2n1` [Example 17, 7-(4-(Difluoromethoxy)benzyloxy)-3H-[1,2,3]triazolo[4,5-b]pyridin-5-amine]: the IC50 is 101 to 999 nM. For the compound `Nc1cc(OCc2ccccc2OCc2ccccc2)c2nn[nH]c2n1` [Example 20, 7-(2-(Benzyloxy)benzyloxy)-3H-[1,2,3]triazolo[4,5-b]pyridin-5-amine], the IC50 fell in the range of 1 to 100 nM. For `Nc1cc(OCc2ccccc2OC(F)(F)F)c2nn[nH]c2n1` [Example 21, 7-(2-(Trifluoromethoxy)benzyloxy)-3H-[1,2,3]triazolo[4,5-b]pyridin-5-amine], the concentration for half-maximal inhibition (IC50) was in the range of 1 to 100 nM.
